According to paper PMC9490236, “Accurate de novo design of membrane-traversing macrocycles” (Cell, 2022):
Where “and” joins values, the source holds several entries; their conditions need not be identical. Equal entries are not always repeated. Where two headings read alike, the source gives them in different places. Where a SMILES comes first, the peptide text is derived from it. [ ]: non-standard residue; d: D form. dNMeI = CC[C@@H](C)[C@@H](NC)C(=O)O; NMeL = CN[C@@H](CC(C)C)C(=O)O; dNMeL = CN[C@H](CC(C)C)C(=O)O; Sar = CNCC(=O)O

Legend:
[1] = PAMPA
[2] = Pharmacokinetics and oral bioavailability of D8.3.p1 and D10.1 in Balb/C female mice (PO, SQ, IV); type: in vivo
Procedure: In vivo bioavailability assays were conducted in mice and rats. D8.3.p1 and D10.1 were studied in female Balb/C mice by van Voorhis group at University of Washington. D11.2 was evaluated in Sprague Dawley (SD) rats by Robert Griffin’s group at Takeda Pharmaceuticals. D11.3 was studied in the male swiss albino mice by the contract research organization, GVK Biosciences Pvt. Ltd., Hyderabad, India. All animals used in these studies were handled in strict accordance with practices made to minimize suffering. All animal experiments conducted at the University of Washington, USA, and Takeda Pharmaceuticals, USA were approved by the Institutional Animal Care and Use Committee. Animal studies at GVK Biosciences were reviewed and approved by the Institutional Animal Ethics Committee of GVK Biosciences. We selected four designed macrocycles with diverse structures and in vitro rates of permeability for in vivo oral bioavailability studies in the rodent models. Due to the intensive resource requirements for such studies, these studies were conducted by three different research groups. D8.3.p1 and D10.1 were studied in female Balb/C mice by van Voorhis group at University of Washington. D11.2 was evaluated in Sprague Dawley (SD) rats by Robert Griffin’s group at Takeda Pharmaceuticals. D11.3 was studied in the male swiss albino mice by the contract research organization, GVK Biosciences Pvt. Ltd., Hyderabad, India. […] Blood samples were collected at multiple time points and plasma was separated from whole blood using centrifugation and stored at -80°C. […] Samples were mixed, centrifuged, and supernatant harvested for LC-MS analysis. For RP-HPLC analysis, peptides were evaluated using Agilent ZORBAX Eclipse Plus C18 1.8 μm, 2.1 mm x 50 mm and Waters Xevo TQ-S micro Triple Quadrupole/ACQUITY UPLC H-Class. […] Pharmacokinetic parameters were modeled using the Phoenix WinNonlin software package. […]

Caco-2 cells = assay: Caco-2 permeability assay (apical to basolateral); type: in vitro ADME, human; settings: Caco-2
How it was run: (§1)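 Caco-2 monolayers were grown on 0.4 μm Transwell inserts for 6 days. Peptides were applied apically at 50 μM with HBSS basolaterally and incubated 90 min at 37°C with shaking.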

[3] = Caco-2 permeability assay (apical to basolateral); type: in vitro ADME, human; settings: for Papp A→B: Caco-2, Caco_Papp_Average
How it was run: as §1

in vitro = settings: PAMPA, PAMPA_Papp_Avg
[4] = D8.3.p1 IV 1 mg/kg, individual mice M1, M2, M3, 1 mg/kg
[5] = D8.3.p1 PO 5 mg/kg, individual mice M1, M2, M3, 5 mg/kg
[6] = D8.3.p1 SQ 5 mg/kg, individual mice M1, M2, M3
[7] = female, Balb/C, mouse, in vivo, iv, 1 mg/kg, Plasma level
[8] = female, Balb/C, mouse, in vivo, sc, 5 mg/kg, Plasma level

For CC[C@@H](C)[C@H]1NC(=O)[C@@H](CC(C)C)NC(=O)[C@@H](CC(C)C)N(C)C(=O)[C@@H]2CCCN2C(=O)[C@@H](C(C)C)NC(=O)[C@H](CC(C)C)NC(=O)[C@@H](CC(C)C)N(C)C(=O)[C@@H]2CCCN2C1=O [Design D8.3.p1, DLEU DVAL PRO *DLEU DLEU DILE PRO *DLEU] (cyclo(L[dV]P[dNMeL][dL][dI]P[dNMeL])), the PAMPA_R1 [1] was 5.23E-06, the PAMPA_R3 [1] was 3.90E-06 and the CLP [2, 4] was 37.62 mL/min/kg and 49.17 mL/min/kg and 38.55 mL/min/kg. For the same compound, the MRT [2, 4] was 15.45 min and 13.12 min and 15.23 min, the T1/2 [2, 4] was 14.5 min and 10.5 min and 11.24 min and the VSS [2, 4] was 0.79 L/kg and 0.75 L/kg and 0.62 L/kg. For the same compound, the VZ [2, 4] was 0.89 L/kg and 0.87 L/kg and 0.59 L/kg, the C0 ([2]; D8.3.p1 IV 1 mg/kg, individual mice M1, M2, M3, 1 mg/kg, read-out: C0) was 1610 nM and 1470 nM and the “Half-life T1/2” value ([2]; D8.3.p1 IV 1 mg/kg, mean n=3) was 12.08 min. The “Mean residence time MRT” value ([2]; D8.3.p1 IV 1 mg/kg, mean n=3) was 14.60 min, the “Plasma clearance CLP” value ([2]; D8.3.p1 IV 1 mg/kg, mean n=3) was 41.78 mL/min/kg and the “Volume of distribution @ steady state VSS” value ([2]; D8.3.p1 IV 1 mg/kg, mean n=3) was 0.72 ± 0.09 L/kg. The “Volume of distribution during elimination phase VZ” value ([2]; D8.3.p1 IV 1 mg/kg, mean n=3) was 0.78 ± 0.17 L/kg, the C0 ([2]; D8.3.p1 IV 1 mg/kg, mean n=3, read-out: Initial concentration C0) was 1530 ± 70 nM and the “Oral bioavailability F” value ([2]; D8.3.p1 PO 5 mg/kg vs IV 1 mg/kg, mean) was 10.74%. The Cl/F [2, 5] was 0.0112 L/min and 0.00671 L/min and 0.00706 L/min, the T1/2 [2, 5] was 23.33 min and 18.86 min and 45.25 min and the Tmax [2, 5] was 15 min and 30 min. The Cmax ([2]; D8.3.p1 PO 5 mg/kg, individual mice M1, M2, M3, 5 mg/kg, read-out: Cmax) was 220 nM and 190 nM, the “Apparent clearance Cl/F” value ([2]; D8.3.p1 PO 5 mg/kg, mean n=3) was 0.00834 L/min and the “Half-life T1/2” value ([2]; D8.3.p1 PO 5 mg/kg, mean n=3) was 29.15 min. The “Time of max concentration Tmax” value ([2]; D8.3.p1 PO 5 mg/kg, mean n=3) was 25 ± 0.01 min, the Cmax ([2]; D8.3.p1 PO 5 mg/kg, mean n=3, read-out: Max concentration Cmax) was 210 ± 20 nM and the Cl/F [2, 6] was 0.000617 L/min and 0.000577 L/min and 0.000312 L/min. For the same compound, the T1/2 [2, 6] was 111.2 min and 101.86 min and 250.78 min, the Tmax [2, 6] was 60 min and 30 min and the Cmax ([2]; D8.3.p1 SQ 5 mg/kg, individual mice M1, M2, M3, read-out: Cmax) was 840 nM and 1080 nM and 930 nM. The “Half-life T1/2” value ([2]; D8.3.p1 SQ 5 mg/kg, mean n=3) was 154.61 min, the “Time of max concentration Tmax” value ([2]; D8.3.p1 SQ 5 mg/kg, mean n=3) was 50 ± 17.32 min and the Cmax ([2]; D8.3.p1 SQ 5 mg/kg, mean n=3, read-out: Max concentration Cmax) was 950 ± 120 nM. The Plasma level ([2]; female, Balb/C, mouse, in vivo, iv, 1 mg/kg, 5 min) was 990 nM, the Plasma level ([2]; female, Balb/C, mouse, in vivo, iv, 1 mg/kg, 0.25 h) was 630 nM and the level at time molar at 5 min [2, 7] was 1110 nM. It also gave a level at time molar at 0.25 h [2, 7] of 420 nM, a level at time molar at 0.5 h [2, 7] of 190 nM and a Plasma level ([2]; female, Balb/C, mouse, in vivo, sc, 5 mg/kg, 0.25 h) of 700 nM. For the same compound, the Plasma level ([2]; female, Balb/C, mouse, in vivo, sc, 5 mg/kg, 0.5 h) was 710 nM, the Plasma level ([2]; female, Balb/C, mouse, in vivo, sc, 5 mg/kg, 2 h) was 880 nM and the Plasma level ([2]; female, Balb/C, mouse, in vivo, sc, 5 mg/kg, 6 h) was 230 nM. The level at time molar at 0.25 h [2, 8] was 510 nM, the level at time molar at 0.5 h [2, 8] was 540 nM and the level at time molar at 1 h [2, 8] was 840 nM. For the same compound, the level at time molar at 2 h [2, 8] was 720 nM, the level at time molar at 6 h [2, 8] was 150 nM and the level at time molar at 24 h [2, 8] was 20 nM. It also gave a level at time molar at 0.5 h ([2]; female, Balb/C, mouse, in vivo, sc, D8.3.p1 SQ 5 mg/kg, 30 min, individual mice M1, M2, M3, read-out: Plasma level) of 1080 nM, an AUC(0-inf) ([2]; female, Balb/C, mouse, in vivo, D8.3.p1 PO 5 mg/kg, mean n=3) of 0.238 µM·h and an AUC(0-t) ([2]; female, Balb/C, mouse, in vivo, D8.3.p1 PO 5 mg/kg, mean n=3, read-out: AUC0-t (converted)) of 0.182 µM·h. For the same compound, the CL/F ([2]; female, Balb/C, mouse, plasma, sc, D8.3.p1 SQ 5 mg/kg, mean n=3, read-out: Apparent clearance Cl/F) was 0.502 mL/min, the Tmax ([2]; mouse, in vivo, 5 mg/kg, Tmax) was 60 min and the Plasma level ([2]; mouse, in vivo, iv, 1 mg/kg, 5 min) was 1070 ± 70 nM. For the same compound, the Plasma level ([2]; mouse, in vivo, iv, 1 mg/kg, 0.5 h) was 270 ± 90 nM, the Plasma level ([2]; mouse, in vivo, iv, 1 mg/kg, 1 h) was 60 ± 40 nM and the C0 ([2]; mouse, in vivo, iv, 1 mg/kg, C0) was 1520 nM. It also gave a Plasma level ([2]; mouse, in vivo, po, 5 mg/kg, 1 h) of 120 ± 40 nM, a Plasma level ([2]; mouse, in vivo, po, 5 mg/kg, 2 h) of 10 nM and a Cmax ([2]; mouse, in vivo, po, 5 mg/kg, Cmax) of 230 nM. For the same compound, the Tmax ([2]; mouse, in vivo, po, 5 mg/kg, Tmax) was 30 min, the Plasma level ([2]; mouse, in vivo, sc, 5 mg/kg, 0.25 h) was 610 ± 130 nM and the Plasma level ([2]; mouse, in vivo, sc, 5 mg/kg, 0.5 h) was 780 ± 280 nM. For the same compound, the Plasma level ([2]; mouse, in vivo, sc, 5 mg/kg, 1 h) was 900 ± 50 nM, the Plasma level ([2]; mouse, in vivo, sc, 5 mg/kg, 2 h) was 780 ± 90 nM and the Plasma level ([2]; mouse, in vivo, sc, 5 mg/kg, 4 h) was 340 ± 170 nM. For the same compound, the Plasma level ([2]; mouse, in vivo, sc, 5 mg/kg, 6 h) was 130 ± 120 nM, the Plasma level ([2]; mouse, in vivo, sc, 5 mg/kg, 24 h) was 10 ± 0 nM and the Caco_R1 (Caco-2 cells) was 13.1. It also gave a Caco_R3 (Caco-2 cells) of 8.9 and a Papp A→B [3] of 11.8 ×10⁻⁶ cm/s.
With CC[C@@H](C)[C@H]1NC(=O)[C@@H]2CCCN2C(=O)[C@@H]([C@H](C)CC)NC(=O)CN(C)C(=O)[C@H](CC(C)C)NC(=O)[C@@H](Cc2ccccc2)NC(=O)[C@H](CC(C)C)N(C)C(=O)[C@H]2CCCN2C(=O)[C@@H](CC(C)C)NC(=O)[C@H](CC(C)C)NC(=O)[C@H]2CCCN2C1=O [Design D11.2, DILE DPRO LEU DLEU DPRO *LEU DPHE LEU *GLY DILE PRO] (cyclo(L[Sar][dI]P[dI][dP]L[dL][dP][NMeL][dF])) the PAMPA_R1 [1] was 1.82E-06, the PAMPA_R3 [1] was 2.50E-06 and the Caco_R1 (Caco-2 cells) was 1.94. For the same compound, the Caco_R3 (Caco-2 cells) was 2.65, the Papp A→B [3] was 2.82 ×10⁻⁶ cm/s and the Papp (in vitro) was 2.15 ×10⁻⁶ cm/s.
CC[C@@H](C)[C@H]1NC(=O)[C@H]([C@@H](C)CC)NC(=O)[C@H](CC(C)C)N(C)C(=O)[C@H]2CCCN2C(=O)[C@@H]([C@H](C)CC)NC(=O)[C@@H]([C@H](C)CC)N(C)C(=O)[C@H](CC(C)C)NC(=O)[C@H]2CCCN2C(=O)[C@@H]2CCCN2C(=O)[C@H](C(C)C)NC(=O)[C@H]2CCCN2C1=O [Design D11.3, VAL PRO DPRO LEU *DILE DILE DPRO *LEU ILE DILE DPRO] (cyclo(I[dI][dP]VP[dP]L[dNMeI][dI][dP][NMeL])) gave a PAMPA_R1 [1] of 1.91E-06, a PAMPA_R3 [1] of 1.10E-06 and a Caco_R1 (Caco-2 cells) of 7.29. The Caco_R3 (Caco-2 cells) was 11.26, the Papp ([3]; Caco-2) was 9.11 ×10⁻⁶ cm/s and the Papp A→B [3] was 9.11 ×10⁻⁶ cm/s. For the same compound, the Papp (in vitro) was 1.48 ×10⁻⁶ cm/s.
